Assay [1] deals with T1, human dopamine D3 receptors (Homo sapiens, UniProt P35462).
T1 construct: expressed in transfected cells; membranes)
In words: Dopamine D3 receptor binding ([125I]-iodosulpride displacement). The protocol: The substance to be tested was either dissolved in methanol/Chremophor® (BASF-AG) or in dimethyl sulfoxide and then diluted with water to the desired concentration.
Each assay mixture was run in triplicate.
The incubation buffer contained 50 mM tris, 120 mM NaCl, 5 mM KCl, 2 mM CaCl2, 2 mM MgCl2 and 0.1% bovine serum albumin, 10 μM quinolone and 0.1% ascorbic acid (prepared fresh daily). The buffer was adjusted to pH 7.4 with HCl.
Measurement and Analysis:
After having been incubated at 25° C. for 60 minutes, the assay mixtures were filtered through a Wathman GF/B glass fiber filter under vacuum using a cell collecting device. The filters were transferred to scintillation viols using a filter transfer system. After 4 ml of Ultima Gold® (Packard) have been added, the samples were shaken for one hour and the radioactivity was then counted in a Beta-Counter (Packard, Tricarb 2000 or 2200CA). The cpm values were converted into dpm using a standard quench series and the program belonging to the instrument.
The inhibition curves were analyzed by means of iterative nonlinear regression analysis using the Statistical Analysis System (SAS) which is similar to the “LIGAND” program described by Munson and Rodbard.

For assay [2], the target named is T2, human dopamine D2L receptors (long isoform) (Homo sapiens, UniProt P14416).
T2 construct: expressed in transfected cells; membranes)
Nature of the assay: Dopamine D2L receptor binding ([125I] iodospiperone), basis of selectivity Ki(D2)/Ki(D3). As to conditions: D2L vs D3. The protocol: The substance to be tested was either dissolved in methanol/Chremophor® (BASF-AG) or in dimethyl sulfoxide and then diluted with water to the desired concentration. […] Each assay mixture was run in triplicate. The incubation buffer contained 50 mM tris, 120 mM NaCl, 5 mM KCl, 2 mM CaCl2, 2 mM MgCl2 and 0.1% bovine serum albumin. The buffer was adjusted to pH 7.4 with HCl. Measurement and Analysis: After having been incubated at 25° C. for 60 minutes, the assay mixtures were filtered through a Wathman GF/B glass fiber filter under vacuum using a cell collecting device. The filters were transferred to scintillation viols using a filter transfer system. After 4 ml of Ultima Gold® (Packard) have been added, the samples were shaken for one hour and the radioactivity was then counted in a Beta-Counter (Packard, Tricarb 2000 or 2200CA). The cpm values were converted into dpm using a standard quench series and the program belonging to the instrument. The inhibition curves were analyzed by means of iterative nonlinear regression analysis using the Statistical Analysis System (SAS) which is similar to the “LIGAND” program described by Munson and Rodbard.

The mark [3] stands for this setting: Table 5, membranes of HEK-293 cells, read-out: Ki D3.
The mark [4] stands for this setting: Table 6, membranes of HEK-293 cells, read-out: ki D3.
Where [5] appears, read: compounds II, read-out: Ki D3 values.

Each structure is given as a SMILES string. Structures can show the parent of a compound that is named as a salt. Where two headings read alike, the source gives them in different places.

T2 sequence (P14416 whole entry, canonical isoform): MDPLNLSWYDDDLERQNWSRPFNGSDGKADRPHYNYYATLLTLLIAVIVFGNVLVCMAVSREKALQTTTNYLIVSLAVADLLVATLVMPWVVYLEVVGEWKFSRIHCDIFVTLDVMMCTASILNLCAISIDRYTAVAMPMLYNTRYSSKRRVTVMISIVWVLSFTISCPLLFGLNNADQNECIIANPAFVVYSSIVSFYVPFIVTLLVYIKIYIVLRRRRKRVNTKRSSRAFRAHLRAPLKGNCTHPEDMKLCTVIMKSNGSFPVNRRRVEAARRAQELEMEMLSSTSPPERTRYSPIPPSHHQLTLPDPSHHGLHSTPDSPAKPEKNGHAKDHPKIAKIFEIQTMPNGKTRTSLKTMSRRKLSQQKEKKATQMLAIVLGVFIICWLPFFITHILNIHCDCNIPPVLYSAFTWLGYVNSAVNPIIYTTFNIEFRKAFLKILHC
T1 sequence (P35462 whole entry): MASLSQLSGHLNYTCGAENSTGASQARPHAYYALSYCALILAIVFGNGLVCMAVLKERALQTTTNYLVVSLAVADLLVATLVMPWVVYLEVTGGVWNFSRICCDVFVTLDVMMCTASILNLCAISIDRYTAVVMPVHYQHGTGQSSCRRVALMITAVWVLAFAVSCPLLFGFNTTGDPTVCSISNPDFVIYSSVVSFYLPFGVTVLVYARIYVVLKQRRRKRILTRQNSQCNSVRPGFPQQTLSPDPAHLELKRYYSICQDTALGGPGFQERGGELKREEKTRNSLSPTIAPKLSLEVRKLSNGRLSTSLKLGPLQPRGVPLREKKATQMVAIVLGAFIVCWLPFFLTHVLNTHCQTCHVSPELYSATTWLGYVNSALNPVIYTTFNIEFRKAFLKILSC

As for `Cn1cnnc1S(=O)(=O)CCCN1CCN(c2cc(C3CCC3)nc(C(C)(C)C)n2)CC1` [Example 2, 2-tert-Butyl-4-cyclobutyl-6-{4-[3-(4-methyl-4H-[1,2,4]triazole-3-sulfonyl)-propyl]-piperazin-1-yl}-pyrimidine], the Ki in assay [1] (setting [3]) was found to be 52 nM. For the same compound, the “Selectivity [Ki(D2)/Ki(D3)]” value in assay [2] (Table 5) worked out at 14.

With `Cn1cnnc1[S+]([O-])CCCN1CCN(c2cc(C3CCC3)nc(C(C)(C)C)n2)CC1` (stereo not drawn) [Example 3, 2-tert-Butyl-4-cyclobutyl-6-{4-[3-(4-methyl-4H-[1,2,4]triazole-3-sulfinyl)-propyl]-piperazin-1-yl}-pyrimidine], the Ki in assay [1] (setting [3]) came out at 12 nM. The “Selectivity [Ki(D2)/Ki(D3)]” value in assay [2] (Table 5) was found to be 44.

For `CCCc1cc(N2CCN(CCC[S+]([O-])c3nnc(CC)n3C)CC2)nc(C(C)(C)C)n1.Cl` (stereo not drawn) [Example 5, 2-tert-Butyl-4-{4-[3-(5-ethyl-4-methyl-4H-[1,2,4]triazole-3-sulfinyl)-propyl]-piperazin-1-yl}-6-propyl-pyrimidine hydrochloride], the inhibition constant (Ki) in assay [1] (setting [3]) worked out at 38 nM. Moreover, the “Selectivity [Ki(D2)/Ki(D3)]” value in assay [2] (Table 5) is reported as 37.

Turning to `Cc1nnc([S+]([O-])CCCN2CCN(c3cc(C4(C)CC4)nc(C(C)(C)C)n3)CC2)n1C` (stereo not drawn) [Example 6, 2-tert-Butyl-4-{4-[3-(4,5-dimethyl-4H-[1,2,4]triazole-3-sulfinyl)-propyl]-piperazin-1-yl}-6-(1-methyl-cyclopropyl)-pyrimidine], in assay [1] (setting [3]), the Ki turned out to be 28.7 nM. Further, the “Selectivity [Ki(D2)/Ki(D3)]” value in assay [2] (Table 5) came to 20.

On to `CCCc1cc(N2CCN(CCC[S+]([O-])c3nnc(C)n3C)CC2)nc(C(C)(C)C)n1.Cl` (stereo not drawn) [Example 8, 2-tert-Butyl-4-{4-[3-(4,5-dimethyl-4H-[1,2,4]triazole-3-sulfinyl)-propyl]-piperazin-1-yl}-6-propyl-pyrimidine hydrochloride], for which the inhibition constant Ki in assay [1] (setting [3]) amounted to 56 nM. Besides, the “Selectivity [Ki(D2)/Ki(D3)]” value in assay [2] (Table 5) was determined as 33.

As for `CCCc1cc(N2CCN(CCCS(=O)(=O)c3nnc(C)n3C)CC2)nc(C(C)(C)C)n1` [Example 9, 2-Di-tert-butyl-6-{4-[3-(4,5-dimethyl-4H-[1,2,4]triazole-3-sulfonyl)-propyl]-piperazin-1-yl}-6-propyl-pyrimidine], the Ki in assay [1] (setting [3]) was 18.3 nM. Further, in assay [2] (Table 5), the “Selectivity [Ki(D2)/Ki(D3)]” value is on record as 45.

Turning to `Cc1nnc(S(=O)(=O)CCCN2CCN(c3cc(C4(C)CC4)nc(C(C)(C)C)n3)CC2)n1C` [Example 10, 2-tert-Butyl-4-{4-[3-(4,5-dimethyl-4H-[1,2,4]triazole-3-sulfonyl)-propyl]-piperazin-1-yl}-6-(1-methyl-cyclopropyl)-pyrimidine], in assay [1] (setting [3]), the Ki stood at 7.8 nM. In addition, the “Selectivity [Ki(D2)/Ki(D3)]” value in assay [2] (Table 5) is 37.

With `CCCc1cc(N2CCN(CCCS(=O)(=O)c3nnc(CC)n3C)CC2)nc(C(C)(C)C)n1` [Example 12, 2-tert-Butyl-4-{4-[3-(5-ethyl-4-methyl-4H-[1,2,4]triazole-3-sulfonyl)-propyl]-piperazin-1-yl}-6-propyl-pyrimidine], in assay [1] (setting [3]), the Ki came to 12.8 nM. In addition, in assay [2] (Table 5), the “Selectivity [Ki(D2)/Ki(D3)]” value was 55.

As to `Cn1c(-c2ccc(F)cc2)nnc1[S+]([O-])CCCN1CCN(c2cc(C(F)(F)F)nc(C(C)(C)C)n2)CC1` (stereo not drawn) [Example 15, 2-tert-Butyl-4-(4-{3-[5-(4-fluoro-phenyl)-4-methyl-4H[1,2,4]triazole-3-sulfinyl]-propyl}-piperazin-1-yl)-6-trifluoromethyl-pyrimidine], in assay [1] (setting [3]), the Ki is 12.6 nM. In assay [2] (Table 5), the “Selectivity [Ki(D2)/Ki(D3)]” value came out at 100.

Regarding `Cl.Cn1c(-c2ccc(F)cc2)nnc1S(=O)(=O)CCCN1CCN(c2cc(C(F)(F)F)nc(C(C)(C)C)n2)CC1` [Example 16, 2-tert-Butyl-4-(4-{3-[5-(4-fluoro-phenyl)-4-methyl-4H-[1,2,4]triazole-3-sulfonyl]-propyl}-piperazin-1-yl)-6-trifluoromethyl-pyrimidine hydrochloride], the inhibition constant Ki in assay [1] (setting [3]) was 17.7 nM. Further, the “Selectivity [Ki(D2)/Ki(D3)]” value in assay [2] (Table 5) worked out at 56.

As to `Cn1cnnc1S(=O)(=O)CCCN1CCN(c2cc(C(C)(C)C)nc(C(C)(C)C)n2)CC1` [Example 17, 2,4-Di-tert-butyl-6-{4-[3-(4-methyl-4H-[1,2,4]triazole-3-sulfonyl)-propyl]-piperazin-1-yl}-pyrimidine], the Ki in assay [1] (setting [4]) stood at 5.95 nM. Moreover, the “Selectivity [Ki(D2)/Ki(D3)]” value in assay [2] (Table 6) is 53.

Turning to `Cn1cnnc1[S+]([O-])CCCN1CCN(c2cc(C(C)(C)C)nc(C(C)(C)C)n2)CC1` (stereo not drawn) [Example 18, 2,4-Di-tert-butyl-6-{4-[3-(4-methyl-4H-[1,2,4]triazole-3-sulfinyl)-propyl]-piperazin-1-yl}-pyrimidine], in assay [1] (setting [4]), the inhibition constant (Ki) is 25 nM. Besides, the “Selectivity [Ki(D2)/Ki(D3)]” value in assay [2] (Table 6) was 17.

`Cl.Cn1cnc(S(=O)(=O)CCCN2CCN(c3cc(C(F)(F)F)nc(C(C)(C)C)n3)CC2)n1` [Example 19, 2-tert-Butyl-4-{4-[3-(1-methyl-1H-[1,2,4]triazole-3-sulfonyl)-propyl]-piperazin-1-yl}-6-trifluoromethyl-pyrimidine hydrochloride]: the inhibitory constant (Ki) in assay [1] (setting [4]) was determined as 32 nM. Moreover, the “Selectivity [Ki(D2)/Ki(D3)]” value in assay [2] (Table 6) was determined as 17.

Turning to `Cl.Cn1ncnc1S(=O)(=O)CCCN1CCN(c2cc(C(C)(C)C)nc(C(C)(C)C)n2)CC1` [Example 20, 2,4-Di-tert-butyl-6-{4-[3-(2-methyl-2H-[1,2,4]triazole-3-sulfonyl)-propyl]-piperazin-1-yl}-pyrimidine hydrochloride], in assay [1] (setting [4]), the Ki was 26.2 nM. Further, in assay [2] (Table 6), the “Selectivity [Ki(D2)/Ki(D3)]” value worked out at 8.

Regarding `Cl.Cn1cnc([S+]([O-])CCCN2CCN(c3cc(C(F)(F)F)nc(C(C)(C)C)n3)CC2)n1` (stereo not drawn) [Example 21, 2-tert-Butyl-4-{4-[3-(1-methyl-1H-[1,2,4]triazole-3-sulfinyl)-propyl]-piperazin-1-yl}-6-trifluoromethyl-pyrimidine hydrochloride], the Ki in assay [1] (setting [4]) came to 16.6 nM. Further, the “Selectivity [Ki(D2)/Ki(D3)]” value in assay [2] (Table 6) stood at 18.

Regarding `CC(C)(C)c1cc(N2CCN(CCCS(=O)(=O)c3nc[nH]n3)CC2)nc(C(C)(C)C)n1` [Example 22, 2,4-Di-tert-butyl-6-{4-[3-(1H-[1,2,4]triazole-3-sulfonyl)-propyl]-piperazin-1-yl}-pyrimidine], the Ki in assay [1] (setting [4]) amounted to 47.4 nM. Further, in assay [2] (Table 6), the “Selectivity [Ki(D2)/Ki(D3)]” value was determined as 19.

As for `Cn1c(SCCCN2CCN(c3cc(C(F)(F)F)nc(C(C)(C)C)n3)CC2)nnc1C1CCCC1` [c.3, 2-tert-Butyl-4-{4-[3-(4-methyl-5-cyclopentyl-4H-[1,2,4]triazol-3-ylsulfanyl)-propyl]-piperazin-1-yl}-6-trifluoromethyl-pyrimidine trifluoroacetate], in assay [1] (setting [5]), the Ki is below 5 nM.

As to `Cn1c(SCCCN2CCN(c3cc(C(F)F)nc(C(C)(C)C)n3)CC2)nnc1C(F)(F)F` [c.6, 2-tert-Butyl-4-{4-[3-(4-methyl-5-trifluoromethyl-4H-[1,2,4]triazol-3-ylsulfanyl)-propyl]-piperazin-1-yl}-6-difluoromethyl-pyrimidine hydrochloride], the Ki in assay [1] (setting [5]) was below 5 nM.

For `Cn1c(SCCCN2CCN(c3cc(C(F)F)nc(C(C)(C)C)n3)CC2)nnc1C1CCC1` [c.20, 2-tert-Butyl-4-{4-[3-(4-methyl-5-cyclobutyl-4H-[1,2,4]triazol-3-ylsulfanyl)-propyl]-piperazin-1-yl}-6-difluoromethyl-pyrimidine hydrochloride], the Ki in assay [1] (setting [5]) is below 5 nM.

For the compound `Cn1c(SCCCN2CCN(c3cc(C(F)F)nc(C(C)(C)C)n3)CC2)nnc1C1CC1` [c.21, 2-tert-Butyl-4-{4-[3-(4-methyl-5-cyclopropyl-4H-[1,2,4]triazol-3-ylsulfanyl)-propyl]-piperazin-1-yl}-6-difluoromethyl-pyrimidine hydrochloride], the Ki in assay [1] (setting [5]) was below 5 nM.

`Cn1c(SCCCN2CCN(c3cc(C(F)(F)F)nc(C(C)(C)C)n3)CC2)nnc1C(C)(C)C` [c.27, 2-tert-Butyl-4-{4-[3-(4-methyl-5-tert-butyl-4H-[1,2,4]triazol-3-ylsulfanyl)-propyl]-piperazin-1-yl}-6-trifluoromethyl-pyrimidine]: the inhibition constant Ki in assay [1] (setting [5]) is below 5 nM.

`CCc1cc(N2CCN(CCCSc3nnc(C(F)(F)F)n3C)CC2)nc(C(C)(C)C)n1` [c.28, 2-tert-Butyl-4-{4-[3-(4-methyl-5-trifluoromethyl-4H-[1,2,4]triazol-3-ylsulfanyl)-propyl]-piperazin-1-yl}-6-ethyl-pyrimidine hydrochloride]: in assay [1] (setting [5]), the Ki was below 5 nM.

`CCc1nnc(SCCCN2CCN(c3cc(C(F)F)nc(C(C)(C)C)n3)CC2)n1C` [c.29, 2-tert-Butyl-4-{4-[3-(4-methyl-5-ethyl-4H-[1,2,4]triazol-3-ylsulfanyl)-propyl]-piperazin-1-yl}-6-difluoromethyl-pyrimidine hydrochloride]: the Ki in assay [1] (setting [5]) was below 5 nM.

In general, Ki refers to a measure of affinity in units of concentration, obtained from inhibition or displacement.

These data come from patent US8101754B2, “Triazole compounds suitable for treating disorders that respond to modulation of the dopamine D3 receptor” (Abbott GmbH & Co. KG, priority 2004, dated 2012).
